*1 amine or outer side, *2 acyl side, *3 side chain or, on linkers, in order; H or OH if unused. Where a SMILES comes first, the peptide text is derived from it. Side-chain parts run from the residue outwards. [ ]: non-standard residue; d: D form. The star is where a group is joined. γGlu = O=C(O)[C@H](CCC(=O)[*:2])N[*:1]; Desaminohistidyl = O=C(CCc1c[nH]cn1)*; Aib = CC(C)(N)C(=O)O
How the values were obtained:
human glucagon receptor = target: T1, human glucagon receptor (Homo sapiens, UniProt P47871); assay: Assay (I)(b): glucagon receptor activation, CRE luciferase reporter gene assay in BHK cells; format: cell-based; settings: BHK cells expressing human glucagon receptor and CRE luciferase, 3 h incubation; read-out: EC50 hGlucagonR
T1 construct: expressed in transfected cells; host or cells: BHK cells, clone BHK hGCGR A3*25; isolated membranes
Experimental: The purpose of this assay is to test the activity, or potency, of the derivatives of the invention, in vitro. The in vitro potency is the measure of human GLP-1 receptor and/or glucagon receptor activation, respectively, in a whole cell assay.
In vitro potency was determined by measuring the response of human GLP-1 or glucagon receptor, respectively, in a reporter gene assay. The assay was performed in a stably transfected BHK cell line that expressed either the human GLP-1 receptor or the human glucagon receptor and contained the DNA for the cAMP response element (CRE) coupled to a promoter and the gene for firefly luciferase (CRE luciferase). […] When assay incubation was completed, the luciferase substrate (luciferin) was added and the enzyme converted luciferin to oxyluciferin and produced bioluminescence. The luminescence was measured as the readout for the assay.
(b) Glucagon Receptor Activation
The cells used in this assay (clone pLJ6′-4-25) were BHK cells with BHK570 as a parent cell line expressing the CRE luciferase gene (clone BHK/KZ10-20-48) and were established by further transfection with the human glucagon receptor (clone pLJ6′ in pHZ-1 vector).
The cells were cultured at 5% CO2 in DMEM medium with 10% FBS, 1× GlutaMAX, 1 mg/mL G418, 240 nM MTX (methotrexate) and 1% pen/strep (penicillin/streptomycin). They were aliquoted and stored in liquid nitrogen. Before each assay, an aliquot was taken up and washed three times in PBS before being suspended at the desired concentration in assay buffer. For 96-well plates the suspension was made to give a final concentration of 5×10 EE3 cells/well.
Assay Medium consisted of DMEM w/o phenol red, 10 mM Hepes, lx GlutaMAX, 2% Ovalbumin and 0.2% Pluronic F-68.
Cell stocks were thawed in a 37° C. water bath. Cells were washed three times in PBS. The cells were counted and adjusted to 5×10 EE3 cells/50 μl (1×10 EE5 cells/mL) in Assay Medium. A 50 μl aliquot of cells was transferred to each well in the assay plate.
Stocks of the test compounds and reference compounds were diluted to a concentration of […] in Assay Medium. Compounds were diluted 10-fold to give the following concentrations: […], 2×10 EE-7 M, 2×10 EE-8 M; 2×10 EE-9 M, 2×10 EE-10 M, 2×10 EE-11 M, 2×10 EE-12 M and 2×10 EE-13 M. For each compound a blank assay buffer control was also included.
A 50 μl aliquot of compound or blank was transferred from the dilution plate to the assay plate. Compounds were tested at the following final concentrations: 1×10 EE-6 M, 1×10 EE-7 M, 1×10 EE-8 M; 1×10 EE-9 M, 1×10 EE-10 M, 1×10 EE-11 M and 1×10 EE-12 M and 1×10 EE-13 M.
The assay plate was incubated for 3 h in a 5% CO2 incubator at 37° C. The assay plate was removed from the incubator and allowed to stand at room temperature for 15 min. A 100 μl aliquot of steadylite plus reagent was added to each well of the assay plate (reagent is light sensitive). Each assay plate was covered with aluminum foil to protect it from light and shaken for 30 min at room temperature. Each assay plate was read in a Packard TopCount NXT instrument.
The data from the TopCount instrument was transferred to GraphPad Prism software. The software performed a non-linear regression (log(agonist) vs response-Variable slope (four parameter)). EC50 values were calculated by the software and reported in pM.

physchem = format: physicochemical; settings: pH 7.5
Outline: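 Peptide at 250 μM in 10 mM HEPES pH 7.5 with 1 μM Thioflavin T, incubated at 37° C with 960 rpm orbital shaking. ThT fluorescence (ex 444/em 485 nm) read every 20 min; lag-time (t0−2τ) and kapp (1/τ) from curve fit. Recovery is post-assay supernatant peptide by RP-HPLC as % of initial.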

T1 sequence (P47871 26-477): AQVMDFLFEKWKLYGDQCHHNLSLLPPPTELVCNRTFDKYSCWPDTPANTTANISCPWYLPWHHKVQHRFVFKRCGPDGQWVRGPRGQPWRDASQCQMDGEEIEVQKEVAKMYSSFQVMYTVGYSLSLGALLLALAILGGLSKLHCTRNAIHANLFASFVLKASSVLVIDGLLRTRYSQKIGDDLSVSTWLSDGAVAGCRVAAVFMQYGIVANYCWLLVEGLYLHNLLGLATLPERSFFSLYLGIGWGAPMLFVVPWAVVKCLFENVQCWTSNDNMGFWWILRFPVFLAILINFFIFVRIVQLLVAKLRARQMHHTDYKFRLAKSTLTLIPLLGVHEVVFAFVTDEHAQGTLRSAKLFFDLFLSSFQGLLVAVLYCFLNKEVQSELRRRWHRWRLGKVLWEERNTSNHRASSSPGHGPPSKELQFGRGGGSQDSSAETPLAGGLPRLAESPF

Row | Compound | EC50 (human glucagon receptor) [pM] | recovery at 250 μM (physchem) [%]
1 | CC(=O)N[C@@H](CCC(=O)N[C@@H](CCC(=O)N[C@@H](CCC(=O)NCCCC[C@H](NC(=O)[C@@H](NC(=O)[C@H](Cc1ccccc1)NC(=O)[C@H](CCC(=O)O)NC(=O)[C@H](CCC(N)=O)NC(=O)[C@H](C)NC(=O)[C@H](CCCNC(=N)N)NC(=O)[C@H](CCCNC(=N)N)NC(=O)[C@H](CO)NC(=O)[C@H](CCC(=O)O)NC(=O)[C@H](CC(C)C)NC(=O)[C@H](Cc1ccc(O)cc1)NC(=O)[C@H](CCCCN)NC(=O)[C@H](CO)NC(=O)[C@H](Cc1ccc(O)cc1)NC(=O)[C@H](CC(=O)O)NC(=O)[C@H](CO)NC(=O)[C@@H](NC(=O)[C@H](Cc1ccccc1)NC(=O)[C@@H](NC(=O)CNC(=O)[C@H](Cc1c[nH]cn1)NC(=O)[C@H](CO)NC(=O)CCc1c[nH]cn1)[C@@H](C)O)[C@@H](C)O)C(C)C)C(=O)N[C@@H](Cc1c[nH]c2ccccc12)C(=O)N[C@@H](CC(C)C)C(=O)N[C@@H](CC(C)C)C(=O)N[C@@H](CO)C(=O)N[C@H](C(=O)O)[C@@H](C)O)C(=O)O)C(=O)O)C(=O)O [Example 18, N^ϵ24-[(4S)-4-[[(4S)-4-[[(4S)-4-acetamido-4-carboxybutanoyl]amino]-4-carboxybutanoyl]amino]-4-carboxybutanoyl]-[Imp1, His3, Glu15, Glu21, Lys24, Leu27, Ser28]-Glucagon] (Desaminohistidyl-SHGTFTSDYSKYLESRRAQEFVK([γGlu-γGlu-γGlu-Ac])WLLST-OH) | 6 | 100
2 | CC(=O)N[C@@H](CCC(=O)N[C@@H](CCC(=O)N[C@@H](CCC(=O)N[C@@H](CCC(=O)N[C@@H](CCC(=O)NCCCC[C@H](NC(=O)[C@@H](NC(=O)[C@H](Cc1ccccc1)NC(=O)[C@H](CCC(=O)O)NC(=O)[C@H](CCC(N)=O)NC(=O)[C@H](C)NC(=O)[C@H](CCCNC(=N)N)NC(=O)[C@H](CCCNC(=N)N)NC(=O)[C@H](CO)NC(=O)[C@H](CCC(=O)O)NC(=O)[C@H](CC(C)C)NC(=O)[C@H](Cc1ccc(O)cc1)NC(=O)[C@H](CCCCN)NC(=O)[C@H](CO)NC(=O)[C@H](Cc1ccc(O)cc1)NC(=O)[C@H](CC(=O)O)NC(=O)[C@H](CO)NC(=O)[C@@H](NC(=O)[C@H](Cc1ccccc1)NC(=O)[C@@H](NC(=O)CNC(=O)[C@H](Cc1c[nH]cn1)NC(=O)[C@H](CO)NC(=O)CCc1c[nH]cn1)[C@@H](C)O)[C@@H](C)O)C(C)C)C(=O)N[C@@H](Cc1c[nH]c2ccccc12)C(=O)N[C@@H](CC(C)C)C(=O)N[C@@H](CC(C)C)C(=O)N[C@@H](CO)C(=O)N[C@H](C(=O)O)[C@@H](C)O)C(=O)O)C(=O)O)C(=O)O)C(=O)O)C(=O)O [Example 19, N^ϵ24-[(4S)-4-[[(4S)-4-[[(4S)-4-[[(4S)-4-[[(4S)-4-acetamido-4-carboxybutanoyl]amino]-4-carboxybutanoyl]amino]-4-carboxybutanoyl]amino]-4-carboxybutanoyl]amino]-4-carboxybutanoyl]-[Imp1, His3, Glu15, Glu21, Lys24, Leu27, Ser28]-Glucagon] (Desaminohistidyl-SHGTFTSDYSKYLESRRAQEFVK([γGlu-γGlu-γGlu-γGlu-γGlu-Ac])WLLST-OH) | 6 | 104
3 | CC(=O)N[C@@H](CCC(=O)N[C@@H](CCC(=O)N[C@@H](CCC(=O)N[C@@H](CCC(=O)NCCCC[C@H](NC(=O)[C@@H](NC(=O)[C@H](Cc1ccccc1)NC(=O)[C@H](CC(=O)O)NC(=O)[C@H](CCC(N)=O)NC(=O)[C@H](C)NC(=O)[C@H](CCCNC(=N)N)NC(=O)[C@H](CCCNC(=N)N)NC(=O)[C@H](C)NC(=O)[C@H](CC(=O)O)NC(=O)[C@H](CC(C)C)NC(=O)[C@H](Cc1ccc(O)cc1)NC(=O)[C@H](CCCCN)NC(=O)[C@H](CO)NC(=O)[C@H](Cc1ccc(O)cc1)NC(=O)[C@H](CC(=O)O)NC(=O)[C@H](CO)NC(=O)[C@@H](NC(=O)[C@H](Cc1ccccc1)NC(=O)[C@@H](NC(=O)CNC(=O)[C@H](Cc1c[nH]cn1)NC(=O)[C@H](CO)NC(=O)CCc1c[nH]cn1)[C@@H](C)O)[C@@H](C)O)C(C)C)C(=O)N[C@@H](Cc1c[nH]c2ccccc12)C(=O)N[C@@H](CC(C)C)C(=O)N[C@@H](CC(C)C)C(=O)N[C@@H](CO)C(=O)N[C@H](C(=O)O)[C@@H](C)O)C(=O)O)C(=O)O)C(=O)O)C(=O)O [Example 20, N^ϵ24-[(4S)-4-[[(4S)-4-[[(4S)-4-[[(4S)-4-acetamido-4-carboxybutanoyl]amino]-4-carboxybutanoyl]amino]-4-carboxybutanoyl]amino]-4-carboxybutanoyl]-[Imp1, His3, Ala16, Lys24, Leu27, Ser28]-Glucagon] (Desaminohistidyl-SHGTFTSDYSKYLDARRAQDFVK([γGlu-γGlu-γGlu-γGlu-Ac])WLLST-OH) | 4 | 105
4 | CC(=O)N[C@@H](CCC(=O)N[C@@H](CCC(=O)N[C@@H](CCC(=O)N[C@@H](CCC(=O)NCCCC[C@H](NC(=O)[C@@H](NC(=O)[C@H](Cc1ccccc1)NC(=O)[C@H](CC(=O)O)NC(=O)[C@H](CCC(N)=O)NC(=O)[C@H](C)NC(=O)[C@H](CCCNC(=N)N)NC(=O)[C@H](CCCNC(=N)N)NC(=O)C(C)(C)NC(=O)[C@H](CC(=O)O)NC(=O)[C@H](CC(C)C)NC(=O)[C@H](Cc1ccc(O)cc1)NC(=O)[C@H](CCCCN)NC(=O)[C@H](CO)NC(=O)[C@H](Cc1ccc(O)cc1)NC(=O)[C@H](CC(=O)O)NC(=O)[C@H](CO)NC(=O)[C@@H](NC(=O)[C@H](Cc1ccccc1)NC(=O)[C@@H](NC(=O)CNC(=O)[C@H](Cc1c[nH]cn1)NC(=O)[C@H](CO)NC(=O)CCc1c[nH]cn1)[C@@H](C)O)[C@@H](C)O)C(C)C)C(=O)N[C@@H](Cc1c[nH]c2ccccc12)C(=O)N[C@@H](CC(C)C)C(=O)N[C@@H](CC(C)C)C(=O)N[C@@H](CO)C(=O)N[C@H](C(=O)O)[C@@H](C)O)C(=O)O)C(=O)O)C(=O)O)C(=O)O [Example 21, N^ϵ24-[(4S)-4-[[(4S)-4-[[(4S)-4-[[(4S)-4-acetamido-4-carboxybutanoyl]amino]-4-carboxybutanoyl]amino]-4-carboxybutanoyl]amino]-4-carboxybutanoyl]-[Imp1, His3, Aib16, Lys24, Leu27, Ser28]-Glucagon] (Desaminohistidyl-SHGTFTSDYSKYLD[Aib]RRAQDFVK([γGlu-γGlu-γGlu-γGlu-Ac])WLLST-OH) | 2 | 104

Source: patent publication US9963496B2, “Stable glucagon analogues and use for treatment of hypoglycaemia” (Novo Nordisk A/S, priority 2014, dated 2018)
